Measured values taken from US20230183237A1, “COMPETITIVE AND NONCOMPETITIVE INHIBITORS OF THE MUSCARINIC ACETYLCHOLINE RECEPTOR M5” (Vanderbilt University, priority 2020, published 2023).

Molecular target: T1, hM5 (Homo sapiens, UniProt P08912)
T1 construct: expressed in transfected cells
T1 sequence (P08912 1-532): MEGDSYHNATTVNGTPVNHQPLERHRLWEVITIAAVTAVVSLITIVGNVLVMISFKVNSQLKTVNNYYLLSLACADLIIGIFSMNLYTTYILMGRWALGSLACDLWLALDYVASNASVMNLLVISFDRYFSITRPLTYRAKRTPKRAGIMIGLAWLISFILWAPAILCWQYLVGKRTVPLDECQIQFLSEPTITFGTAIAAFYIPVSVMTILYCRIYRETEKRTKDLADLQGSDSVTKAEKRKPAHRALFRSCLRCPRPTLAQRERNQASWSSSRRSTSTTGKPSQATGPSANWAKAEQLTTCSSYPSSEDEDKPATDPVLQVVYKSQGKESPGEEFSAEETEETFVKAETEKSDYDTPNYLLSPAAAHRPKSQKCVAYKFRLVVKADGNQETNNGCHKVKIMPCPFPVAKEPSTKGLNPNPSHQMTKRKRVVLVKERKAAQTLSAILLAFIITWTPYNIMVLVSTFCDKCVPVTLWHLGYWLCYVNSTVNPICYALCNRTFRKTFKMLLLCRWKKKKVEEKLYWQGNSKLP
Assay: Calcium mobilization concentration-response (IC50 vs EC80 acetylcholine), CHO hM5
Format: cell-based
Conditions: CELL LINE hM5; calcium mobilization, EC80 acetylcholine addition; read-out: IC50
Method in brief: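 CHO cells stably expressing hM5, dye-loaded, in HBSS/20 mM HEPES/2.5 mM probenecid, pH 7.4. Compounds were pre-incubated 140 s before an EC80 acetylcholine challenge, with calcium flux read kinetically.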

IC50 | Structure (SMILES)
> 10 µM | Cc1cc2nncn2cc1C1CCN(S(=O)(=O)c2cc3c(cc2F)OCC3)CC1 [Compound 51, 6-(1-((6-fluoro-2,3-dihydrobenzofuran-5-yl)sulfonyl)piperidin-4-yl)-7-methyl-[1,2,4]triazolo[4,3-a]pyridine]
> 10 µM | O=S(=O)(c1cc2c(cc1F)OCC2)N1CCC(c2cc3cc[nH]c3cn2)CC1 [Compound 93, 5-(1-((6-fluoro-2,3-dihydrobenzofuran-5-yl)sulfonyl)piperidin-4-yl)-1H-pyrrolo[2,3-c]pyridine]
> 10 µM | Cn1cnc2cc(C3CCN(S(=O)(=O)c4ccc5c(c4)CCO5)CC3)ccc21 [Compound 7, 5-(1-((2,3-dihydrobenzofuran-5-yl)sulfonyl)piperidin-4-yl)-1-methyl-1H-benzo[d]imidazole]
> 10 µM | Cc1cc2ncnn2cc1C1CCN(S(=O)(=O)c2cn(-c3ccccc3)nc2C)CC1 [Compound 102, 7-methyl-6-(1-((3-methyl-1-phenyl-1H-pyrazol-4-yl)sulfonyl)piperidin-4-yl)-[1,2,4]triazolo[1,5-a]pyridine]
0.037 µM | Cc1c(C2=CCN(S(=O)(=O)c3cnn(C)c3C)CC2)cn2ncnc2c1Cl [Compound 380, 8-chloro-6-(1-((1,5-dimethyl-1H-pyrazol-4-yl)sulfonyl)-1,2,3,6-tetrahydropyridin-4-yl)-7-methyl-[1,2,4]triazolo[1,5-a]pyridine]
0.012 µM | Cc1c(C2CCN(S(=O)(=O)c3cnn4c3CCCC4)CC2)cn2ncnc2c1F [Compound 305, 8-fluoro-7-methyl-6-(1-((4,5,6,7-tetrahydropyrazolo[1,5-a]pyridin-3-yl)sulfonyl)piperidin-4-yl)-[1,2,4]triazolo[1,5-a]pyridine]
0.053 µM | [2H]C([2H])([2H])n1cc(S(=O)(=O)N2CCC(c3cn4ncnc4cc3C)CC2)c(Cl)n1 [Compound 256, 6-(1-((3-chloro-1-(methyl-d3)-1H-pyrazol-4-yl)sulfonyl)piperidin-4-yl)-7-methyl-[1,2,4]triazolo[1,5-a]pyridine]
0.341 µM | CCc1cc2ncnn2cc1C1CCN(S(=O)(=O)c2cnc3ccccn23)CC1 [Compound 334, 7-ethyl-6-(1-(imidazo[1,2-a]pyridin-3-ylsulfonyl)piperidin-4-yl)-[1,2,4]triazolo[1,5-a]pyridine]
> 10 µM | Cc1nc2cc(C)c(C3CCN(S(=O)(=O)c4cc5c(cc4F)OCC5)CC3)cn2n1 [Compound 77, 6-(1-((6-fluoro-2,3-dihydrobenzofuran-5-yl)sulfonyl)piperidin-4-yl)-2,7-dimethyl-[1,2,4]triazolo[1,5-a]pyridine]
7.2 µM | Cc1cc2ncnn2cc1C1CCN(S(=O)(=O)c2cn(C)c(C)n2)CC1 [Compound 320, 6-(1-((1,2-dimethyl-1H-imidazol-4-yl)sulfonyl)piperidin-4-yl)-7-methyl-[1,2,4]triazolo[1,5-a]pyridine]
0.016 µM | Cc1cc2ncnn2cc1C1CCN(S(=O)(=O)c2cnc3ccccn23)CC1 [Compound 323, 6-(1-(imidazo[1,2-a]pyridin-3-ylsulfonyl)piperidin-4-yl)-7-methyl-[1,2,4]triazolo[1,5-a]pyridine]
> 10 µM | Cc1cc2ncnn2nc1C1CCN(S(=O)(=O)c2cnn(C(F)F)c2C)CC1 [Compound 176, 6-(1-((1-(difluoromethyl)-5-methyl-1H-pyrazol-4-yl)sulfonyl)piperidin-4-yl)-7-methyl-[1,2,4]triazolo[1,5-b]pyridazine]
> 10 µM | CCn1cc(S(=O)(=O)N2CCC(c3cn4ncnc4cc3C)CC2)c(C2CC2)n1 [Compound 134, 6-(1-((3-cyclopropyl-1-ethyl-1H-pyrazol-4-yl)sulfonyl)piperidin-4-yl)-7-methyl-[1,2,4]triazolo[1,5-a]pyridine]
0.407 µM | Cc1ncc(S(=O)(=O)N2CCC(c3cn4ncnc4cc3F)CC2)n1C [Compound 234, 6-(1-((1,2-dimethyl-1H-imidazol-5-yl)sulfonyl)piperidin-4-yl)-7-fluoro-[1,24]triazolo[1,5-a]pyridine]
> 10 µM | Cc1cc2ncnn2cc1C1CCN(S(=O)(=O)c2ccc3c(c2)ncn3C)CC1 [Compound 189, 7-methyl-6-(1-((1-methyl-1H-benzo[d]imidazol-5-yl)sulfonyl)piperidin-4-yl)-[1,2,4]triazolo[1,5-a]pyridine]
0.065 µM | O=S(=O)(c1cnn2c1CCC2)N1CC=C(c2cc3ncnn3cc2Cl)CC1 [Compound 195, 6-chloro-7-(1-((5,6-dihydro-4H-pyrrolo[1,2-b]pyrazol-3-yl)sulfonyl)-1,2,3,6-tetrahydropyridin-4-yl)-[1,2,4]triazolo[1,5-a]pyridine]
0.786 µM | Cc1c(S(=O)(=O)N2CC=C(c3cn4ncnc4cc3C3CC3)CC2)cnn1C [Compound 148, 7-cyclopropyl-6-(1-((1,5-dimethyl-1H-pyrazol-4-yl)sulfonyl)-1,2,3,6-tetrahydropyridin-4-yl)-[1,2,4]triazolo[1,5-a]pyridine]
1.8 µM | O=S(=O)(c1ccc2ncsc2c1)N1CCC(c2cn3ncnc3cc2C(F)(F)F)CC1 [Compound 111, 6-((4-(7-(trifluoromethyl)-[1,2,4]triazolo[1,5-a]pyridin-6-yl)piperidin-1-yl)sulfonyl)benzo[d]thiazole]

Same assay, conditions: CELL LINE hM5; vs EC80 acetylcholine; read-out: IC50

IC50 | Structure (SMILES)
1.46 µM | Cn1ncc(S(=O)(=O)N2CCC(c3cc(-c4ccco4)n[nH]3)CC2)c1Cl [Compound 587]
0.445 µM | Cc1cc2ncccc2cc1C1CCN(S(=O)(=O)c2cnc3ccccn23)CC1 [Compound 452, 6-(1-(imidazo[1,2-a]pyridin-3-ylsulfonyl)piperidin-4-yl)-7-methylquinoline]
2.07 µM | Cc1ncc(S(=O)(=O)N2CCC(c3cn4ccnc4cc3C)CC2)s1 [Compound 583, 2-methyl-5-((4-(7-methylimidazo[1,2-a]pyridin-6-yl)piperidin-1-yl)sulfonyl)thiazole]
> 10 µM | Cc1cc2ncnn2cc1C1CCN(S(=O)(=O)c2cnn(C)c2C2CCNCC2)CC1 [Compound 577, 7-Methyl-6-(1-((1-methyl-5-(piperidin-4-yl)-1H-pyrazol-4-yl)sulfonyl)piperidin-4-yl)-[1,2,4]triazolo[1,5-a]pyridine]
4.96 µM | [2H]C([2H])([2H])OCc1c(S(=O)(=O)N2CCC(c3cn4ncnc4cc3C)CC2)cnn1C [Compound 440, 6-(1-((5-((methoxy-d3)methyl)-1-methyl-1H-pyrazol-4-yl)sulfonyl)piperidin-4-yl)-7-methyl-[1,2,4]triazolo[1,5-a]pyridine]
0.318 µM | Cc1ncc(S(=O)(=O)N2CCC(c3cn4ncnc4c(F)c3C)CC2)o1 [Compound 486, 5-((4-(8-fluoro-7-methyl-[1,2,4]triazolo[1,5-a]pyridin-6-yl)piperidin-1-yl)sulfonyl)-2-methyloxazole]
0.028 µM | Cc1nnc(S(=O)(=O)N2CCC(c3cn4ncnc4cc3Cl)CC2)s1 [Compound 540, 2-((4-(7-Chloro[1,2,4]triazolo[1,5-a]pyridin-6-yl)piperidin-1-yl)sulfonyl)-5-methyl-1,3,4-thiadiazole]
0.02 µM | [2H]C1([2H])CC(c2cn3ncnc3cc2F)CC([2H])([2H])N1S(=O)(=O)c1cnn2c1CCC2 [Compound 478, 6-(1-((5,6-dihydro-4H-pyrrolo[1,2-b]pyrazol-3-yl)sulfonyl)piperidin-4-yl-2,2,6,6-d4)-7-fluoro-[1,2,4]triazolo[1,5-a]pyridine]
